1 sequence from patent US8623832B2, “Peptide compositions that bind TLR-4” (The Board of Regents of the University of Oklahoma, priority 2011, dated 2014) can be followed below.

Entries after “also recorded” stand apart in the source; their conditions may differ. Where no end group is shown, it is not given here.

The test system of assay [1] is SW480 cells. Nature of the assay: LPS-stimulated migration of SW480 cells. In kind it is cell-based, human. The note with it: LPS 1.0 μg/ml; SPA4 1, 10 and 50 μM; from 24 hours till 72 hours. The procedure:
Cell migration: SW480 cells were plated in 30 mm tissue-culture-treated dishes at a density of 1.0×10^6 cells per plate. At 80-90% confluence, a “reference line” was drawn at the bottom of the plate. The cells were scratched off from one side of the reference line using a rubber policeman. A picture was taken at 0 t that helped in marking the “start line”. Cells were then washed with complete medium and incubated with LPS (1.0 μg/ml) and/or SPA4 peptide (1, 10 and 50 μM). Photomicrographs of cells migrated across the “start line” were taken in different fields after each treatment at 24, 48, and 72 hours (±2 hours) following traceable inscriptions made under the plate at three different points, with a Canon digital camera. On 24, 48 and 72 hour images, a second line was drawn along the edge of cells to represent the migration of cells. Cell migration was calculated by measuring the distance cells migrated from the “start line”. Only the continuous migration of cells was considered for measurement. The islets of cells were disregarded. The cell migration was calculated using the following formula: (distance between “start line” at 0 h—“reference line”)-(distance between “72 hours line”—“reference line”).

The subject of assay [2] is NF-κB pathway molecules (IKBα, phosphorylated IKBα, p65, phosphorylated p65, RelB, COX-2). Nature of the assay: Expression of NF-κB pathway molecules in SW480 cell lysates by immunoblotting. Format: cell-based, human. The procedure:
Expression of NF-κB pathway molecules by immunoblotting: The expression of NF-κB pathway molecules (inhibitor kappa-Bα: IKBα, phosphorylated IKBα, p65, phosphorylated p65, RelB and COX-2) in SW480 cell-lysates treated with LPS±SPA4 peptide was studied by immunoblotting. For the immunoblotting, 10 μg of total cell-lysate proteins were fractionated on Novex 4-20% Tris-glycine gradient SDS-PAGE gel (Invitrogen, Carlsbad, Calif.) by electrophoresis. Separated proteins were electro-transferred onto a nitrocellulose membrane using iBlot gel transfer device (Invitrogen, Carlsbad, Calif.). The non-specific sites were blocked by incubating the membrane with 7% skimmed milk in Tris-buffered saline with 0.4% TWEEN®-20 (TBST) for 1 hour at room temperature. The blocked membranes were incubated overnight at 4° C. with 1:1000 diluted anti-human antibodies against NF-κB canonical pathway molecules: phosphorylated inhibitor kappa-Bα (IKBα), total-IKBα, p65, RelB (Cell Signaling Technology, Inc., Danvers, Mass.), phosphorylated p65 (Santacruz Biotech, Inc., Santa Cruz, Calif.) and cyclooxygenase-2 (COX-2; Santacruz Biotech, Inc., Santa Cruz, Calif.). The membranes were washed with TBST and incubated at room temperature for 45 minutes with 1:3500 diluted horse-radish peroxidase (HRP)-conjugated-secondary antibody (Sigma-Aldrich, St. Louis, Mo.). The immunoreactive bands were detected by Super Signal West Femto detection reagent (Thermo Fisher Scientific, Barrington, Ill.). In order to ensure equal protein loading in the wells, the membranes were stripped of probing antibodies at 60° C. for 45 minutes using a stripping solution containing 10% SDS, 0.5 M Tris and […] (35 μl/ml), and re-probed with anti-actin antibody (Sigma-Aldrich, MO; 1:1000 in TBST). The immunoblots were imaged using the Ultraquant image acquisition program (UltraLum Inc., Claremont, Calif.). The densitometric readings were obtained for immunoreactive bands with Image J 1.42 q program (NIH, USA). Finally, arbitrary densitometric values for proteins of interest were normalized with those of β-actin.
For orientation: In western blotting, separated proteins are transferred to a membrane and probed.

The subject of assay [3] is TLR4. Nature of the assay: TLR4 expression in JAWS II dendritic cells by immunocytochemistry / confocal microscopy. Format: cell-based, mouse. As to the method: TLR4 expression by immunocytochemistry: The JAWS II-DCs were seeded at a density of 25,000 cells per well of an 8-well chamber slide (Nalge Nunc international, New York, USA). Post-LPS (100 ng/ml) treatment with SPA4 peptide (1 and 10 μM; SEQ ID NO:3) followed, and the cells were fixed for 20 minutes with 3.5% paraformaldehyde prepared in PBS on ice. Permeablization was carried out for 20 minutes on ice with Alpha-MEM medium containing 10% FBS and 0.05% saponin and 10 mM HEPES (Inaba et al., 1998). The cells were washed with PBS supplemented with 1% FBS and 0.05% saponin (wash buffer). Non-specific binding sites were blocked using PBS containing 10% normal mouse serum (Sigma, St Louis, Mo.) for 1 hour at room temperature in a humidified chamber. A rabbit polyclonal antibody to mouse TLR4 (Abcam, Cambridge, Mass.) was added to the cells at a dilution of 1:50 and incubated overnight at 4° C. in a humidified chamber. […]
SPA4 peptide (SEQ ID NO:3) inhibits the LPS-induced TLR4 expression in dendritic cells and SW480 intestinal (colonic) epithelial cells. […] First, it was determined if the SPA4 peptide inhibits LPS-induced expression of TLR4 in these cells. […]

Turning to “GDFRYSDGTPVNYTNWYRGE [SPA4, GDFRYSDGT PVNYTNWYRGE]”, in assay [1], the “LPS-induced migration of SW480 cells” value is reported as “inhibited”. In addition, in assay [2] (LPS-challenged), the “expression of RelB” value was “No effect” and the “expression of phosphorylated IKBα” value is recorded as “No effect”. Besides, in assay [2] (LPS-challenged, 5 hours model), the “expression of COX-2, short-term treatment” value is “decrease”; the “expression of phosphorylated p65, short-term treatment” value is reported as “decrease”; the “expression of total IKBα, short-term treatment” value is “increase”. For the same sequence, in assay [2] (LPS-challenged, 9 hours model), the “expression of COX-2, long-term treatment” value was “remained low”; the “expression of phosphorylated p65, long-term treatment” value is on record as “remained low”; the “expression of total IKBα, long-term treatment” value is on record as “decreased”. In assay [2] (no LPS), the “expression of NF-κB signaling molecules, SPA4 peptide alone” value is recorded as “did not affect the expression of any of the NF-κB signaling molecules studied, except for COX-2”. Besides, in assay [3], the “basal TLR4 expression” value was “reduced the basal TLR4 expression”. Besides, the “LPS-induced TLR4 expression” value in assay [3] (post-LPS treatment, p<0.05) was “suppressed significantly; also recorded: reduced LPS-induced TLR4 expression to a basal level”.
